For 19 compounds, mortality results are on record in patent publication US10681908B2, “Molecules having pesticidal utility, and intermediates, compositions, and processes, related thereto” (Dow AgroSciences LLC, priority 2016, dated 2020).

In test [1] the test system is Cabbage Looper (Trichoplusia ni, TRIPNI). In words: Bioassay on Cabbage Looper (CL), 128-well diet tray assay. Format: in vivo. As to conditions: 168 h, 50 μg/cm^2 on artificial diet, second instar larvae, five to seven days, 25° C., read-out: CL % Control (or Mortality) rating. The procedure:
(§1) Example A: Bioassays on Beet Armyworm (Spodoptera Exigua, LAPHEG) (“BAW”), Corn Earworm (Helicoverpa zea, HELIZE) (“CEW”), and Cabbage Looper (Trichoplusia ni, TRIPNI) (“CL”)
(§2) Certain molecules disclosed in this document were tested against BAW, CEW, and CL using procedures described in the following examples. In the reporting of the results, the “BAW, CEW, & CL Rating Table” was used (See Table Section).
Bioassays on CL were conducted using a 128-well diet tray assay. One to five second instar CL larvae were placed in each well (3 mL) of the diet tray that had been previously filled with 1 mL of artificial diet to which 50 μg/cm^2 of the test molecule (dissolved in 50 μL of 90:10 acetone-water mixture) had been applied (to each of eight wells) and then allowed to dry. Trays were covered with a clear self-adhesive cover and held at 25° C., 14:10 light-dark for five to seven days. Percent mortality was recorded for the larvae in each well; activity in the eight wells was then averaged. The results are indicated in the table entitled “Table ABC: Biological Results” (See Table Section).
(§3) Bioassays on BAW and CL were conducted according to the procedures outlined in Example A: Bioassays on Beet Armyworm (“BAW”) and Cabbage Looper (“CL”) using the indicated concentrations.

In test [2] the test system is Beet Armyworm (Spodoptera exigua, LAPHEG). In words: Bioassay on Beet Armyworm (BAW), 128-well diet tray assay. The note with it: 168 h, 50 μg/cm^2 on artificial diet, second instar larvae, five to seven days, 25° C., read-out: BAW % Control (or Mortality) rating. Format: in vivo. Here is the method:
as §1, §2
Bioassays on BAW were conducted using a 128-well diet tray assay. One to five second instar BAW larvae were placed in each well (3 mL) of the diet tray that had been previously filled with 1 mL of artificial diet to which 50 μg/cm^2 of the test molecule (dissolved in 50 μL of 90:10 acetone-water mixture) had been applied (to each of eight wells) and then allowed to dry. Trays were covered with a clear self-adhesive cover and held at 25° C., 14:10 light-dark for five to seven days. Percent mortality was recorded for the larvae in each well; activity in the eight wells was then averaged. The results are indicated in the table entitled “Table ABC: Biological Results” (See Table Section).
as §3

The term mortality denotes the percentage killed.

With `CCS(=O)(=O)C[C@@H](C)NC(=O)c1ccc(/C(F)=C/C(c2cc(Cl)c(Br)c(Cl)c2)C(F)(F)F)cc1C(F)(F)F` (stereo partly drawn) [F63, 4-((Z)-3-(4-Bromo-3,5-chlorophenyl)-1,4,4,4-tetrafluorobut-1-en-1-yl)-N—((R)-1-(ethylsulfonyl)propan-2-yl)-2-(trifluoromethyl)benzamide], the mortality at 50 µg/cm2 in test [1] and in test [2] was 50 to 100% each time.
For the compound `C[C@H](CSCC(F)(F)F)NC(=O)c1ccc(/C(F)=C/C(c2cc(Cl)cc(Br)c2)C(F)(F)F)cc1C(F)(F)F` (stereo partly drawn) [F64, 4-((Z)-3-(3-Bromo-5-chlorophenyl)-1,4,4,4-tetrafluorobut-1-en-1-yl)-N—((R)-1-((2,2,2-trifluoroethyl)thio)propan-2-yl)-2-(trifluoromethyl)benzamide], the mortality at 50 µg/cm2 in test [1] and in test [2] was 50 to 100% in each case.
As for `C[C@H](C[S+]([O-])CC(F)(F)F)NC(=O)c1ccc(/C(F)=C/C(c2ccc(Cl)c(Cl)c2)C(F)(F)F)cc1Br` (stereo partly drawn) [F66, 2-Bromo-4-((Z)-3-(3,4-dichlorophenyl)-1,4,4,4-tetrafluorobut-1-en-1-yl)-N-((2R)-1-((2,2,2-trifluoroethyl)sulfinyl)propan-2-yl)benzamide], the mortality at 50 µg/cm2 in test [1] and in test [2] was 50 to 100% throughout.
Take `C[C@H](CS(=O)(=O)CC(F)(F)F)NC(=O)c1ccc(/C(F)=C/C(c2ccc(Cl)c(Cl)c2)C(F)(F)F)cc1Br` (some centres unmarked) [F67]: the mortality at 50 µg/cm2 in test [1] and in test [2] was 50 to 100% each time.
Regarding `C[C@H](CS(=O)(=O)CC(F)(F)F)NC(=O)c1ccc(/C(F)=C/C(c2cc(Cl)c(Cl)c(C(F)F)c2)C(F)(F)F)cc1C(F)(F)F` (stereo partly drawn) [F70, 4-((Z)-3-(3,4-dichloro-5-(difluoromethyl)phenyl)-1,4,4,4-tetrafluorobut-1-en-1-yl)-N—((R)-1-((2,2,2-trifluoroethyl)sulfonyl)propan-2-yl)-2-(trifluoromethyl)benzamide], the mortality at 50 µg/cm2 in test [1] and in test [2] was 50 to 100% throughout.
As to `C[C@H](CS(=O)(=O)CC(F)(F)F)NC(=O)c1ccc(/C(F)=C/C(c2cc(F)c(Cl)c(C(F)(F)F)c2)C(F)(F)F)cc1C(F)(F)F` (stereo partly drawn) [F71, 4-((Z)-3-(4-Chloro-3-fluoro-5-(trifluoromethyl)phenyl)-1,4,4,4-tetrafluorobut-1-en-1-yl)-N—((R)-1-((2,2,2-trifluoroethyl)sulfonyl)propan-2-yl)-2-(trifluoromethyl)benzamide], the mortality at 50 µg/cm2 in test [1] and in test [2] was 50 to 100% in each case.
As for `C[C@H](CS(=O)(=O)CC(F)(F)F)NC(=O)c1ccc(/C(F)=C/[C@H](c2cc(Cl)c(Cl)c(Cl)c2)C(F)(F)F)cc1C(F)(F)F` [F72, 4-((R,Z)-1,4,4,4-tetrafluoro-3-(3,4,5-trichlorophenyl)but-1-en-1-yl)-N—((R)-1-((2,2,2-trifluoroethyl)sulfonyl)propan-2-yl)-2-(trifluoromethyl)benzamide], the mortality at 50 µg/cm2 in test [1] and in test [2] was 50 to 100% throughout.
Consider `C=Cc1cc(C(/C=C(\F)c2ccc(C(=O)N[C@H](C)CS(=O)(=O)CC(F)(F)F)c(C(F)(F)F)c2)C(F)(F)F)cc(Cl)c1Cl` (stereo partly drawn) [F73, 4-((Z)-3-(3,4-dichloro-5-vinylphenyl)-1,4,4,4-tetrafluorobut-1-en-1-yl)-N—((R)-1-((2,2,2-trifluoroethyl)sulfonyl)propan-2-yl)-2-(trifluoromethyl)benzamide], for which the mortality at 50 µg/cm2 in test [1] and in test [2] was 50 to 100% in each case.
Consider `CSC[C@@H](C)NC(=O)c1ccc(/C(F)=C/C(c2cc(Cl)c(Cl)c(Cl)c2)C(F)(F)F)cc1C(F)(F)F` (stereo partly drawn) [F75, N—((R)-1-(Methylthio)propan-2-yl)-4-((Z)-1,4,4,4-tetrafluoro-3-(3,4,5-trichlorophenyl)but-1-en-1-yl)-2-(trifluoromethyl)benzamide], for which the mortality at 50 µg/cm2 in test [1] and in test [2] was 50 to 100% in each case.
For the compound `C[C@H](CS(=O)(=O)CC(F)(F)F)NC(=O)c1ccc(/C(F)=C/C(c2ccc(F)c(C(F)(F)F)c2)C(F)(F)F)cc1C(F)(F)F` (stereo partly drawn) [F77, 4-((Z)-1,4,4,4-Tetrafluoro-3-(4-fluoro-3-(trifluoromethyl)phenyl)but-1-en-1-yl)-N—((R)-1-((2,2,2-trifluoroethyl)sulfonyl)propan-2-yl)-2-(trifluoromethyl)benzamide], the mortality at 50 µg/cm2 in test [1] and in test [2] was 50 to 100% in each case.
For `C[C@H](CS(=O)(=O)CC(F)(F)F)NC(=O)c1ccc(/C(F)=C/C(c2ccc(Cl)c(Br)c2)C(F)(F)F)cc1C(F)(F)F` (stereo partly drawn) [F79, 4-((Z)-3-(3-Bromo-4-chlorophenyl)-1,4,4,4-tetrafluorobut-1-en-1-yl)-N—((R)-1-((2,2,2-trifluoroethyl)sulfonyl)propan-2-yl)-2-(trifluoromethyl)benzamide], the mortality at 50 µg/cm2 in test [1] and in test [2] was 50 to 100% each time.
With `C[C@H](CS(=O)(=O)CC(F)(F)F)NC(=O)c1ccc(/C(F)=C/C(c2cc(Cl)c(Cl)c(Br)c2)C(F)(F)F)cc1C(F)(F)F` (stereo partly drawn) [F80, 4-((Z)-3-(3-Bromo-4,5-dichlorophenyl)-1,4,4,4-tetrafluorobut-1-en-1-yl)-N—((R)-1-((2,2,2-trifluoroethyl)sulfonyl)propan-2-yl)-2-(trifluoromethyl)benzamide], the mortality at 50 µg/cm2 in test [1] and in test [2] was 50 to 100% each time.
Turning to `C[C@H](CS(=O)(=O)CC(F)(F)F)NC(=O)c1ccc(/C(F)=C/C(c2cc(Cl)cc(C(F)(F)F)c2)C(F)(F)F)cc1C(F)(F)F` (stereo partly drawn) [F81, 4-((Z)-3-(3-Chloro-5-(trifluoromethyl)phenyl)-1,4,4,4-tetrafluorobut-1-en-1-yl)-N—((R)-1-((2,2,2-trifluoroethyl)sulfonyl)propan-2-yl)-2-(trifluoromethyl)benzamide], the mortality at 50 µg/cm2 in test [1] and in test [2] was 50 to 100% each time.
For the compound `C[C@H](CSCC(F)F)NC(=O)c1ccc(/C(F)=C/C(c2cc(Cl)c(Cl)c(Cl)c2)C(F)(F)F)cc1C(F)(F)F` (stereo partly drawn) [F82, N—((R)-1-((2,2-Difluoroethyl)thio)propan-2-yl)-4-((Z)-1,4,4,4-tetrafluoro-3-(3,4,5-trichlorophenyl)but-1-en-1-yl)-2-(trifluoromethyl)benzamide], the mortality at 50 µg/cm2 in test [1] and in test [2] was 50 to 100% each time.
As to `C[C@H](CSCC#N)NC(=O)c1ccc(/C(F)=C/C(c2cc(Cl)c(Cl)c(Cl)c2)C(F)(F)F)cc1C(F)(F)F` (stereo partly drawn) [F83, N—((R)-1-((Cyanomethyl)thio)propan-2-yl)-4-((Z)-1,4,4,4-tetrafluoro-3-(3,4,5-trichlorophenyl)but-1-en-1-yl)-2-(trifluoromethyl)benzamide], the mortality at 50 µg/cm2 in test [1] and in test [2] was 50 to 100% in each case.
Take `C[C@H](CSCCF)NC(=O)c1ccc(/C(F)=C/C(c2cc(Cl)c(Cl)c(Cl)c2)C(F)(F)F)cc1C(F)(F)F` (stereo partly drawn) [F84, N—((R)-1-((2-Fluoroethyl)thio)propan-2-yl)-4-((Z)-1,4,4,4-tetrafluoro-3-(3,4,5-trichlorophenyl)but-1-en-1-yl)-2-(trifluoromethyl)benzamide]: the mortality at 50 µg/cm2 in test [1] and in test [2] was 50 to 100% throughout.
Turning to `C[C@H](CS(=O)(=O)CCF)NC(=O)c1ccc(/C(F)=C/C(c2cc(Cl)c(Cl)c(Cl)c2)C(F)(F)F)cc1C(F)(F)F` (stereo partly drawn) [F85, N—((R)-1-((2-Fluoroethyl)sulfonyl)propan-2-yl)-4-((Z)-1,4,4,4-tetrafluoro-3-(3,4,5-trichlorophenyl)but-1-en-1-yl)-2-(trifluoromethyl)benzamide], the mortality at 50 µg/cm2 in test [1] and in test [2] was 50 to 100% in each case.
As for `C[C@H](C[S+]([O-])CC(F)F)NC(=O)c1ccc(/C(F)=C/C(c2cc(Cl)c(Cl)c(Cl)c2)C(F)(F)F)cc1C(F)(F)F` (stereo partly drawn) [F86, N-((2R)-1-((2,2-Difluoroethyl)sulfinyl)propan-2-yl)-4-((Z)-1,4,4,4-tetrafluoro-3-(3,4,5-trichlorophenyl)but-1-en-1-yl)-2-(trifluoromethyl)benzamide], the mortality at 50 µg/cm2 in test [1] and in test [2] was 50 to 100% throughout.
For `C[C@H](CS(C)(=O)=O)NC(=O)c1ccc(/C(F)=C/C(c2cc(Cl)c(Cl)c(Cl)c2)C(F)(F)F)cc1C(F)(F)F` (stereo partly drawn) [F87, N—((R)-1-(methylsulfonyl)propan-2-yl)-4-((Z)-1,4,4,4-tetrafluoro-3-(3,4,5-trichlorophenyl)but-1-en-1-yl)-2-(trifluoromethyl)benzamide], the mortality at 50 µg/cm2 in test [1] and in test [2] was 50 to 100% in each case.
